Assay results as given in US20220305003A1, “METHODS OF TREATING CANCER WITH AN INHIBITOR OF ZNF827” (CHILDREN'S MEDICAL RESEARCH INSTITUTE, priority 2019, published 2022).

Experiments:
[1] = system: U-2 OS cells; assay: Sister chromatid exchange (SCE) assay in U-2 OS; assay type: cell-based; settings: topotecan 2 μg/mL 1 hr
Description: For the SCE assay, 20-25% confluent cells were cultured in fresh media supplemented with 7.5 μM […] (BrdU) and 2.5 μM BrdC (BrdU:BrdC 3:1 ratio; Sigma-Aldrich) for 32-48 hours depending on the mitotic index of the cell line. Cell cultures were treated with 100 ng/mL colcemid for the last 4 hours of incubation to accumulate mitotic cells. Cells were harvested by trypsinisation and centrifugation, and then incubated in hypotonic buffer for 10 minutes at 37° C. Swollen cells were fixed by gradually adding 1 mL of fresh ice-cold fixative (methanol/acetic acid 3:1), mixing by inversion and incubating on ice for 5 minutes. Cells were then collected by centrifugation at 1200 rpm for 8 minutes. 10 mL ice cold fixative was added to resuspend the cells followed by 5 minutes incubation on ice and centrifugation at 1200 rpm for 8 minutes. This fixing step was repeated another two times. Fixed cells were then resuspended in 500-1000 μL of ice-cold fixative, and dropped onto clean, dry microscope slides (HDS Surefrost, 50-100 μL cell solution per slide). To drop chromosomes, a clean dry slide was held over a 75° C. water bath, and the cell solution was dropped from a pipette onto the slide, which was quickly flipped and held close to the surface of the water bath for 5 seconds. […]

[2] = system: U-2 OS cells; assay: Topotecan dose-response of cell proliferation after siRNA transfection (IncuCyte); assay type: cell-based; settings: topotecan 0.0039-1 μg/mL, 180 hours, compared to scrambled control
Description: U-2 OS cells were plated in a 96-well plate at 4000 cells per well. 24 hours following plating, cells were transfected with either scrambled or ZNF827 siRNAs (Table 2) using Lipofectamine RNAiMAX transfection reagent (ThermoFisher Scientific). 24 hours post siRNA transfection, cells were treated with topotecan at a range of concentrations including 0.0039, 0.0078, 0.0156, 0.03125, 0.0625, 0.125, 0.25, 0.5 and 1 μg/mL in triplicates. DMSO was used as untreated control. Immediately after treatment addition, cells were imaged using the IncuCyte® live cell imaging system at 2-hour intervals for 180 hours. Cell proliferation was measured by phase object confluence calculated by the IncuCyte® analysis software. For IC50s, cell proliferation data were analysed in GraphPad Prism 8 to obtain area under curve (AUC), followed by normalisation and non-linear regression using the log(inhibitor) vs. normalised response -variable slope' function.

[3] = target: T1, ZNF827 ZnF4-9 deleted (Homo sapiens); assay: EMSA; 0.8 mM ZnCl2, 100 mM KCl, poly(dI:dC), on ice; settings: tags: HaloTag (pHTN), expressed in HEK 293T, tag removed by HaloTEV cleavage; label: 32P (gamma)
T1 chain: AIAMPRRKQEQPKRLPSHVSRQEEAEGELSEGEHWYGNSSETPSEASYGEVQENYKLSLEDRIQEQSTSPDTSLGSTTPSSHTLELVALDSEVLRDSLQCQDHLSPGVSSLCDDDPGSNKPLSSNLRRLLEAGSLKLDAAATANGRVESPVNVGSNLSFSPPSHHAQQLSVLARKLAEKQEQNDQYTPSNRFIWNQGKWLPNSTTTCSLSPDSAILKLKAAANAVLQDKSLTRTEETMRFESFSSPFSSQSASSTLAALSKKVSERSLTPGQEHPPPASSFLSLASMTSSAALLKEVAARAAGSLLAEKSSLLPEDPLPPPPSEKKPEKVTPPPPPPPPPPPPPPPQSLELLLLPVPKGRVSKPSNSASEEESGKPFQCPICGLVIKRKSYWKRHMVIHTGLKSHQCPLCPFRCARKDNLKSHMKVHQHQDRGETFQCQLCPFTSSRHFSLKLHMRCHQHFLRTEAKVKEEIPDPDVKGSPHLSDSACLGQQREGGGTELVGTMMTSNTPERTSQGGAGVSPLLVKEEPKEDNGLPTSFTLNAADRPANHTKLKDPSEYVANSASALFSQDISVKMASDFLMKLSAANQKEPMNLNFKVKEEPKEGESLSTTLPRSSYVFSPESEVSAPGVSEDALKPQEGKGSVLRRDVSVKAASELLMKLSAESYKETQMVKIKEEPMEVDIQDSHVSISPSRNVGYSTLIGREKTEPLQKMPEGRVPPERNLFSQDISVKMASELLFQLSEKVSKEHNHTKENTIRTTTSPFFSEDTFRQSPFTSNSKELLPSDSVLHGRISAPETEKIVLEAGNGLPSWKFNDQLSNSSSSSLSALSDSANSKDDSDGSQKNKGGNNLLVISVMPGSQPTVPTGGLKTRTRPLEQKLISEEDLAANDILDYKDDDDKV
Description: Purified proteins were quantified using a BCA assay using the Pierce™ BCA Protein Assay Kit according to the manufacturer's instructions. Equal amounts of purified proteins were incubated in binding buffer (20 mM HEPES-KOH, pH7.9, 100 mM KCl, 0.8 mM ZnCl₂, 0.2 mM EDTA, 5% glycerol, 0.5 mM DTT and 0.5 mM PMSF) with 6.25 μg/mL poly (dI:dC) and 50 ng/μL BSA on ice for 20 minutes. ˜0.12 nM (˜2.5 fmol) γ-³²P labelled DNA oligonucleotide (see Table 3) probes were added to samples and incubated on ice for another 30 minutes. Binding reactions were loaded onto an 8% native acrylamide/bisacrylamide (19:1, Biorad) gel pre-run at 100V in 0.5× TB buffer (89 mM Tris, 89 mM boric acid) for 20 minutes. Gels were electrophoresed at 150 V for 150 minutes at 4° C., dried at 65° C. for 45 minutes, and then exposed to a Phosphor screen overnight. Gel images were obtained by scanning the screens with a Typhoon FLA9500 Imager (GE Life Sciences).

Which “sister chromatid exchanges (SCEs)” value [1] does the source give for `CC[C@@]1(O)C(=O)OCc2c1cc1n(c2=O)Cc2cc3c(CN(C)C)c(O)ccc3nc2-1` [topotecan] here?
The value was “drastic induction of SCEs”.

With “siZNF827: Stealth RNAi siRNA ZNF827HSS135819 duplex oligoribonucleotides (Invitrogen), SEQ ID NO: 12 and 13 (chain 1 GGGCAGUCUUCUGGCUGAGAAAUCA; chain 2 UGAUUUCUCAGCCAGAAGACUGCCC; listed as RNA, further chemistry not given here)” as the molecule, how does the “sensitivity to topotecan treatment (cell proliferation dose-response)” value [2] read?
Its value is “markedly increased sensitivity to topotecan treatment”.

B1: ss telomeric G rich oligo (ssDNA)
DNA: TTAGGGTTAGGGTTAGGG
Does B1 bind [3]?
Result: binds
